Experimental data as given in patent publication US20210196714A1, “COMPOSITIONS AND METHODS FOR TREATING DISORDERS CHARACTERIZED WITH ABERRANT RAS/MAPK SIGNALING” (Duke University, priority 2018, published 2021).
Entries after “also recorded” stand apart in the source; their conditions may differ.

What was measured:
kmt2d-CRISPR embryos = test: Brain cell proliferation (pHH3 immunostaining) in kmt2d-mosaic mutants; type: in vivo, zebrafish; conditions: 100 nM, 2 dpf, listed as dmDf
From the text: Intellectual disability represents a major phenotype in KS, with some studies reporting almost 90% of patients to be affected (see, Wessels, M. W., et al. Clin Dysmorphol 11, 95-102 (2002)). […] Previous studies have shown that defects in proliferation in the developing zebrafish brain can be a proxy for neurodevelopmental and neurocognitive traits, especially in the context of microcephaly (see, Borck, G. et al. Genome Res 25, 609 (2015); Brooks, S. S. et al. Genetics 198, 723-33 (2014); O'Rawe, J. A. et al. Am J Hum Genet 97, 922-32 (2015); Wortmann, S. B. et al. Am J Hum Genet 96, 245-57 (2015)), a phenotype reported commonly in KS (see, Matsumoto, N. & Niikawa, N. Am J Med Genet C Semin Med Genet 117C, 57-65 (2003)).
(§1) For convergence and extension (CE) phenotyping, embryos were scored as described (see, Leitch, C. C. et al. Nat Genet 40, 443-8 (2008)) at the 8-10 somite stage, and images were captured using an AZ100 microscope and NIS Elements software (Nikon). […] The distance between Meckel's (MK) and ceratohyal (CH) cartilages was measured on ventral bright field images with Image J (NIH). […] Fluorescence signal on embryo heads was imaged with the Nikon AZ100 microscope and DS-Qi1MC digital camera using […] Z-stacks to generate extended depth of focus images. Cell numbers were quantified using the ImageJ ICTN plugin (NIH). […]

[1] = system: kmt2d+/−×kmt2d+/− progeny; test: Brain cell proliferation in stable kmt2d mutant intercross progeny; type: in vivo, zebrafish; conditions: 100 mM dmDf, 2 dpf
From the text: FIG. 12: Treatment with dmDf rescues the defects of stable kmt2d mutant. kmt2d+/− adults were in-crossed and the embryos were then collected at 1 dpf, 2 dpf and 5 dpf to assess dmDf efficacy. […] Error bars show SEM (standard error of the mean).
Although the small molecule testing data in CRISPR F0 mosaic models are consistent with morphant phenotypes (and rescue), experiments recognized the necessity of testing the potential efficacy of dmDf in a stable genetic model that is a better genotypic proxy to human patients. […] In addition to examining proliferation of cells in the brain, experiments assessed whether neural differentiation is affected (see, Van Laarhoven, P. M. et al. Hum Mol Genet 24, 4443-53 (2015)).
as §1

For CC(C)c1nc(-c2cccc(NS(=O)(=O)c3c(F)cccc3F)c2F)c(-c2ccnc(N)n2)s1 [Compound 8, desmethyl-Dabrafenib], which “total number of proliferating (pHH3+) cells in brain” value (kmt2d-CRISPR embryos) is on record?
Its value is “can be rescued; also recorded: restored the total number of proliferating cells to wild type levels”.

And the “number of proliferating cells in the brain” value [1]?
Its value is “increases significantly; also recorded: rescued”.
